# Columns and labels:
# rice = assay: Test B flooded paddy test; format: in vivo, Oryza sativa; conditions: 250 g ai/ha, Flood, 13 days, 0 to 100 scale (0 no effect, 100 complete control)
# Procedure, shortened: (§1)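 Compound is introduced into paddy water covering soil by 3 cm, treating plants that have reached two leaves. Pots are kept flooded at that depth under greenhouse conditions. Assessment at 13 days gives a 0–100 visual control score.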
# galium = assay: Test A postemergence; format: in vivo, Galium aparine; conditions: postemergence, 10 days
# Procedure, shortened: (§2)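 Seeds in loam–sand blend received a directed preemergence soil spray of compound in non-phytotoxic solvent with surfactant; postemergence plants (2–10 cm, one- to two-leaf stage) were sprayed with the same formulation. After 10 days in greenhouse, injury was rated visually versus untreated controls, 0 (no effect) to 100 (complete control).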
# kochia [1] = assay: Test A postemergence; format: in vivo, Bassia scoparia; conditions: postemergence, 10 days
# Procedure, shortened: as §2
# pigweed, palmer [2] = assay: Test A postemergence; format: in vivo, Amaranthus palmeri; conditions: postemergence, 10 days
# Procedure, shortened: as §2
# blackgrass [3] = assay: Test A preemergence; format: in vivo, Alopecurus myosuroides; conditions: 0 to 100 scale
# Procedure, shortened: as §2
# oat, wild [4] = assay: Test A preemergence; format: in vivo, Avena fatua; conditions: 0 to 100 scale
# Procedure, shortened: as §2
# pigweed, palmer [5] = assay: Test A preemergence; format: in vivo, Amaranthus palmeri; conditions: 0 to 100 scale
# Procedure, shortened: as §2
# ryegrass, Italian [6] = assay: Test A preemergence; format: in vivo, Lolium multiflorum; conditions: 0 to 100 scale
# Procedure, shortened: as §2
# wheat [7] = assay: Test A postemergence; format: in vivo, Triticum aestivum; conditions: postemergence, 10 days
# Procedure, shortened: as §2
# sedge, umbrella = assay: Test B flooded paddy test; format: in vivo, Cyperus difformis; conditions: 250 g ai/ha, Flood, 13 days, 0 to 100 scale (0 no effect, 100 complete control)
# Procedure, shortened: as §1
# ryegrass, Italian [8] = assay: Test A postemergence; format: in vivo, Lolium multiflorum; conditions: postemergence, 10 days
# Procedure, shortened: as §2
# corn [9] = assay: Test A postemergence; format: in vivo, Zea mays; conditions: postemergence, 10 days
# Procedure, shortened: as §2
# soybean [10] = assay: Test A postemergence; format: in vivo, Glycine max; conditions: postemergence, 10 days
# Procedure, shortened: as §2
# oat, wild [11] = assay: Test A postemergence; format: in vivo, Avena fatua; conditions: postemergence, 10 days
# Procedure, shortened: as §2
# barnyardgrass [12] = assay: Test A preemergence; format: in vivo, Echinochloa crusgalli; conditions: visual injury after 10 days, 0 to 100 scale, 0 is no effect, 100 is complete control
# From the text: (§3) Seeds of plant species selected from barnyardgrass (Echinochloa crusgalli), blackgrass (Alopecurus myosuroides), corn (Zea mays), foxtail, giant (giant foxtail, Setaria faberi), goosegrass (Eleusine indica), kochia (Bassia scoparia), oat, wild (wild oat, Avena fatua), pigweed, palmer (palmer amaranth, palmer pigweed, Amaranthus palmeri), Pigweed, Redroot (redroot pigweed, Amaranthus retroflexus), ragweed (common ragweed, Ambrosia artemisiifolia), ryegrass, Italian (italian ryegrass, Lolium multiflorum), soybean (Glycine max), and wheat (Triticum aestivum) were planted into a blend of loam soil and sand and treated preemergence with a directed soil spray using test chemicals formulated in a non-phytotoxic solvent mixture which included a surfactant. At the same time, plants selected from these crops and weed species and also galium (catchweed bedstraw, Galium aparine) and horseweed (Erigeron canadensis) were planted in pots containing the same blend of loam soil and sand and treated with postemergence applications of test chemicals formulated in the same manner. Plants ranged in height from 2 to 10 cm and were in the one- to two-leaf stage for the postemergence treatment. Treated plants and untreated controls were maintained in a greenhouse for 10 days, after which time all treated plants were compared to untreated controls and visually evaluated for injury. Plant response ratings, summarized in Table A, are based on a 0 to 100 scale where 0 is no effect and 100 is complete control. A dash (-) response means no test result.
# blackgrass [13] = assay: Test A postemergence; format: in vivo, Alopecurus myosuroides; conditions: postemergence, 10 days
# Procedure, shortened: as §2
# ragweed [14] = assay: Test A postemergence; format: in vivo, Ambrosia artemisiifolia; conditions: postemergence, 10 days
# Procedure, shortened: as §2
# barnyardgrass [15] = assay: Test B flooded paddy test; format: in vivo, Echinochloa crus-galli; conditions: 250 g ai/ha, Flood, 13 days, 0 to 100 scale (0 no effect, 100 complete control)
# Procedure, shortened: as §1
# wheat [16] = assay: Test A preemergence; format: in vivo, Triticum aestivum; conditions: 0 to 100 scale
# Procedure, shortened: as §2
# soybean [17] = assay: Test A preemergence; format: in vivo, Glycine max; conditions: 0 to 100 scale
# Procedure, shortened: as §2
# corn [18] = assay: Test A preemergence; format: in vivo, Zea mays; conditions: 0 to 100 scale
# Procedure, shortened: as §2
# ragweed [19] = assay: Test A preemergence; format: in vivo, Ambrosia artemisiifolia; conditions: 0 to 100 scale
# Procedure, shortened: as §2
# ducksalad = assay: Test B flooded paddy test; format: in vivo, Heteranthera limosa; conditions: 250 g ai/ha, Flood, 13 days, 0 to 100 scale (0 no effect, 100 complete control)
# Procedure, shortened: as §1
# barnyardgrass [20] = assay: Test A postemergence; format: in vivo, Echinochloa crusgalli; conditions: postemergence, 10 days
# From the text: as §3
# horseweed = assay: Test A postemergence; format: in vivo, Erigeron canadensis; conditions: postemergence, 10 days
# Procedure, shortened: as §2
# kochia [21] = assay: Test A preemergence; format: in vivo, Bassia scoparia; conditions: 0 to 100 scale
# Procedure, shortened: as §2
# [22] = 125 g ai/ha, 0 to 100 scale, 0 no effect, 100 complete control
# [23] = 500 g ai/ha, visual injury, 0 to 100 scale (0 no effect, 100 complete control)
# [24] = 500 g ai/ha, visual injury after 10 days, 0 is no effect, 100 is complete control
smiles,measurement,setting,value
C[C@H]1CN(C(=O)c2cc(I)cc(-n3cncn3)c2)c2cccc(Cl)c2O1 [Compound 137],"Plant response rating, Rice",rice,0
same,Galium plant response rating,galium; [22],80
same,"Plant response rating, Galium",galium; [23],90
same,Kochia plant response rating,kochia [1]; [22],30
same,"Plant response rating, Kochia",kochia [1]; [23],70
same,"Pigweed, Palmer plant response rating","pigweed, palmer [2]; [22]",30
same,"Plant response rating, Pigweed, Palmer","pigweed, palmer [2]; [23]",60
same,"Plant response rating, Blackgrass",blackgrass [3]; 125 g ai/ha,0
same,"Plant response rating, Blackgrass",blackgrass [3]; [24],30
same,"Plant response rating, Oat, Wild","oat, wild [4]; 125 g ai/ha",0
same,"Plant response rating, Oat, Wild","oat, wild [4]; [24]",0
same,"Plant response rating, Pigweed, Palmer","pigweed, palmer [5]; 125 g ai/ha",10
same,"Plant response rating, Pigweed, Palmer","pigweed, palmer [5]; [24]",80
same,"Plant response rating, Ryegrass, Italian","ryegrass, Italian [6]; 125 g ai/ha",70
same,"Plant response rating, Ryegrass, Italian","ryegrass, Italian [6]; [24]",80
same,Wheat plant response rating,wheat [7]; [22],10
same,"Plant response rating, Wheat",wheat [7]; [23],10
same,"Plant response rating, Sedge, Umbrella","sedge, umbrella",0
same,"Ryegrass, Italian plant response rating","ryegrass, Italian [8]; [22]",20
same,"Plant response rating, Ryegrass, Italian","ryegrass, Italian [8]; [23]",30
same,Corn plant response rating,corn [9]; [22],10
same,"Plant response rating, Corn",corn [9]; [23],10
same,Soybean plant response rating,soybean [10]; [22],80
same,"Plant response rating, Soybean",soybean [10]; [23],90
same,"Oat, Wild plant response rating","oat, wild [11]; [22]",0
same,"Plant response rating, Oat, Wild","oat, wild [11]; [23]",0
same,"Plant response rating, Barnyardgrass",barnyardgrass [12]; 125 g ai/ha,0
same,"Plant response rating, Barnyardgrass",barnyardgrass [12]; 500 g ai/ha,40
same,Blackgrass plant response rating,blackgrass [13]; [22],20
same,"Plant response rating, Blackgrass",blackgrass [13]; [23],70
same,Ragweed plant response rating,ragweed [14]; [22],30
same,"Plant response rating, Ragweed",ragweed [14]; [23],30
same,"Plant response rating, Barnyardgrass",barnyardgrass [15],0
same,"Plant response rating, Wheat",wheat [16]; 125 g ai/ha,0
same,"Plant response rating, Wheat",wheat [16]; [24],0
same,"Plant response rating, Soybean",soybean [17]; 125 g ai/ha,0
same,"Plant response rating, Soybean",soybean [17]; [24],0
same,"Plant response rating, Corn",corn [18]; 125 g ai/ha,0
same,"Plant response rating, Corn",corn [18]; [24],50
same,"Plant response rating, Ragweed",ragweed [19]; 125 g ai/ha,0
same,"Plant response rating, Ragweed",ragweed [19]; [24],0
same,"Plant response rating, Ducksalad",ducksalad,0
same,Barnyardgrass plant response rating,barnyardgrass [20]; [22],10
same,"Plant response rating, Barnyardgrass",barnyardgrass [20]; [23],10
same,Horseweed plant response rating,horseweed; [22],0
same,"Plant response rating, Horseweed",horseweed; [23],30
same,"Plant response rating, Kochia",kochia [21]; 125 g ai/ha,0
same,"Plant response rating, Kochia",kochia [21]; [24],0
